Test system: chorioallantoic membrane (CAM) of chick embryo
Assay: Chick embryo chorioallantoic membrane (CAM) angiogenesis assay
Format: in vivo, chick (white Leghorn)
Conditions: 20 μL of 6 mg/mL in PBS on nitrocellulose disk placed on CAM on 7th day, observed 12th day, estimated visually
Description: In this example, the activity of mannose-6-phosphate (M6P) and of the compounds of formulae (I-1), (I-2) and (I-3) as prepared in examples 1 to 3 above, respectively, on the inhibition of angiogenesis was studied, in comparison with three D-mannopyranoside (DM) derivatives having pro-angiogenic activity and thus not forming part of the invention (DM1: methyl 7-amino-6,7-dideoxy-α-D-mannopyranoside; DM2: methyl 6-azido-6-deoxy-α-D-mannopyranoside and DM3: methyl 7-disodiumphosphonato-6,7-dideoxy-α-D-mannohepto-pyranoside). This study was performed on chick embryos according to the method described by Ribatti D. et al., Nat. Protoc., 2006, 1(1), 85-91 with a few minor modifications.
This study was performed on the chorioallantoic membrane (CAM) of chick embryo. The CAM is an extra-embryonic membrane formed on the fourth day of incubation by fusion of the chorion and of the allantois. It allows gas exchange between the chick embryo and the extra-embryonic environment up to the time of birth. This CAM is composed of a very thick capillary network that forms a continuous surface in direct contact with the shell. Rapid capillary proliferation of this membrane continues up to the 11th day; the mitotic index then decreases rapidly and the vascular system reaches its final organization on the 18th day, just before birth (hatching on the 21st day).
Fertilized eggs of a hen of the white Leghorn race were placed in an incubator from the start of embryogenesis, where they were kept under constant humidity at a temperature of 38° C. On the second day of incubation, a window was opened in the shell after removal of 2 to 3 mL of albumin in order to detach the CAM from the shell. The window was then sealed with adhesive tape and the egg was returned to the incubator to continue its development up to the date of the experiment. On the 7th day, pieces of inert synthetic polymers (nitrocellulose filter disks 0.4 cm in diameter) were soaked with 20 μL of each of the solutions of the test compounds (6 mg/mL in PBS) and then positioned on the CAM. The impact of the test substances on the angiogenesis was then observed on the 12th day and the quantitative evaluation of the pro- or anti-angiogenic response was estimated visually.

SMILES	effect on the vascularization of chick embryos
CO[C@H]1O[C@H](CCS(=O)(=O)[O-])[C@@H](O)[C@H](O)[C@@H]1O.[Na+] [(I-1), Methyl 6,7-Dideoxy-7-Sodiumsulfonato-α-d-mannoheptopyranoside]	inhibitory effect
CO[C@H]1OC(CC(=O)O)[C@@H](O)C(O)C1O (stereo partly drawn) [(I-2), (Methyl 6,7-Dideoxy-α-D-Mannoheptopyranosine)uronic acid]	inhibitory effect
CO[C@H]1OC(CC(C(=O)O)C(=O)O)[C@@H](O)C(O)C1O (stereo partly drawn) [(I-3), methyl 6-deoxy-6-malonate-α-D-Mannopyranoside]	inhibitory effect
CO[C@H]1O[C@H](CCN)[C@@H](O)[C@H](O)[C@@H]1O [DM1, methyl 7-amino-6,7-dideoxy-α-D-mannopyranoside, reference compound]	activating effect
CO[C@H]1O[C@H](CN=[N+]=[N-])[C@@H](O)[C@H](O)[C@@H]1O [DM2, methyl 6-azido-6-deoxy-α-D-mannopyranoside, reference compound]	activating effect
CO[C@H]1O[C@H](CCP(=O)([O-])[O-])[C@@H](O)[C@H](O)[C@@H]1O.[Na+].[Na+] [DM3, methyl 7-disodiumphosphonato-6,7-dideoxy-α-D-mannohepto-pyranoside, reference compound]	activating effect
COC1O[C@H](COP(=O)(O)O)[C@@H](O)[C@H](O)[C@@H]1O (stereo partly drawn) [M6P, methyl D-mannopyranoside 6-phosphate]	inhibitory effect
